Measurements: patent US20110039763A1, “TARGETED ANTIMICROBIAL MOIETIES” (C3 JIAN, INC., priority 2009, published 2011)
Entries after “also recorded” stand apart in the source; their conditions may differ.

Experiments:
[1] = tested on: microorganisms; experiment: Peptide activities: targeting/binding, antimicrobial, growth or phenotype altering (Tables 7, 8); format: cell-based; conditions: peptides having multiple activities
[2] = tested on: microorganisms; experiment: Targeting peptide binding to target microorganisms (Tables 3, 10, 12); conditions: microorganism(s) the targeting peptide binds; binding in aqueous buffers varied with peptide solubility, preferably 1x PBS
[3] = tested on: microorganisms; experiment: Morphology, biofilm and growth disrupting peptides (Table 5); format: cell-based; parameters: key: A: Peptide aggregates; B: Less hyphal formation; Clumps; Diffuse clumps and small polyps; F: Diffuse growth; H: Thin; I: Growth inhibition; Microcolony formation; Rippled; Small polyps; Thick; W: Halo formation on top, microlonies on bottom
Text: In certain embodiments peptides that induce alterations in phenotype or other biological activities can also be used as antimicrobial effector moieties.

Row | Substance | Activities [1] | Target(s) [2] | Organism, effect: E. coli [3] | Organism, effect: MRSA [3] | Organism, effect: S. epidermidis [3] | Organism, effect: E. faecalis [3] | Organism, effect: C. jejuni ([3]; C. jejuni) | Organism, effect: S. pneumoniae ([3]; S. pneumoniae)
1 | PF-370: peptide having multiple activities (chain 1 VIFLHKESGNLKEIFY; chain 2 VIFLHKESGNLKEIFY; Peptide with targeting and/or antimicrobial activity) | G B | S. epidermidis; also recorded: E. coli; also recorded: P. aeruginosa; also recorded: E. faecalis; also recorded: C. jejuni | E. coli (R) | MRSA (C) | S. epidermidis (C) | – | – | –
2 | PF-373: peptide having multiple activities (chain 1 HFYLLFER; chain 2 HFYLLFER; Peptide with targeting and/or antimicrobial activity) | G B | S. epidermidis and E. coli and P. aeruginosa and C. albicans and MRSA and E. faecalis and C. jejuni | – | MRSA (M) | S. epidermidis (M) | – | – | –
3 | PF-378: peptide having multiple activities (chain 1 ESAKSNLNFLMQEEWALFLLL; chain 2 ESAKSNLNFLMQEEWALFLLL; Peptide with targeting and/or antimicrobial activity) | G B | B. subtilis; also recorded: B. fragilis; also recorded: E. coli; also recorded: P. aeruginosa; also recorded: C. jeikeium | – | MRSA (M) | S. epidermidis (M) | – | – | –
4 | PF-381: peptide having multiple activities (chain 1 QGANPCQQVGFTVNDPDCRLAKTV; chain 2 QGANPCQQVGFTVNDPDCRLAKTV; Peptide with targeting and/or antimicrobial activity) | G B | E. coli; also recorded: P. aeruginosa; also recorded: C. jejuni | E. coli (R) | MRSA (C) | S. epidermidis (C) | E. faecalis (C) | – | –
5 | PF-382: peptide having multiple activities (chain 1 KYKCSWCKRVYTLRKDHKTAR; chain 2 KYKCSWCKRVYTLRKDHKTAR; Peptide with targeting and/or antimicrobial activity) | G B | S. epidermidis; also recorded: B. subtilis; also recorded: B. fragilis; also recorded: E. coli; also recorded: P. aeruginosa; also recorded: E. faecalis; also recorded: C. jeikeium; also recorded: C. jejuni | – | MRSA (M) | – | – | – | –
6 | PF-383: peptide having multiple activities (chain 1 WSEIEINTKQSN; chain 2 WSEIEINTKQSN; Peptide with targeting and/or antimicrobial activity) | G B | S. epidermidis; also recorded: B. subtilis; also recorded: B. fragilis; also recorded: E. coli; also recorded: C. jejuni | E. coli (R) | – | S. epidermidis (C) | – | – | –
7 | PF-385: peptide having multiple activities (chain 1 MIKKSILKIKYYVPVLISLTLILSA; chain 2 MIKKSILKIKYYVPVLISLTLILSA; Peptide with targeting and/or antimicrobial activity) | G B | S. epidermidis; also recorded: E. coli; also recorded: P. aeruginosa; also recorded: C. albicans; also recorded: E. faecalis | E. coli (A) | – | – | – | – | –
8 | PF-390: peptide having multiple activities (chain 1 VVAYVITQVGAIRF; chain 2 VVAYVITQVGAIRF; Peptide with targeting and/or antimicrobial activity) | G B | S. epidermidis and P. aeruginosa and C. albicans and MRSA | E. coli (C) | MRSA (D) | S. epidermidis (D) | E. faecalis (D) | C. jejuni (D) | S. pneumoniae (D)
